Values of other authors as cited in PMC8781256, “The Influence of Fed State Lipolysis Inhibition on the Intraluminal Behaviour and Absorption of Fenofibrate from a Lipid-Based Formulation” (Pharmaceutics, 2022).

Key:
[1] = test system: human gastric lipase (HGL); set-up: method as in PMID 11408251; settings: after intake of solid and liquid meals
[2] = test system: human pancreatic lipase (HPL); set-up: method as in PMID 11408251; settings: after intake of solid and liquid meals
[3] = set-up: method as in PMID 8626884; settings: acts locally in the GI tract

log P	Compound	HGL enzyme inhibition [1]	HPL enzyme inhibition [2]	systemic uptake [3]
5.21	CC(C)OC(=O)C(C)(C)Oc1ccc(C(=O)c2ccc(Cl)cc2)cc1 [fenofibrate]			
	CCCCCCCCCCC[C@@H](C[C@@H]1OC(=O)[C@H]1CCCCCC)OC(=O)[C@H](CC(C)C)NC=O [orlistat, tetrahydrolipstatin]	46.6–91.4%	51.2–82.6%	negligible
